US7858657B2 (Proix Pharmaceutical Corp., priority 2004, dated 2010)
“And” between values parts separate entries of the source, which are not always exact repeats. Identical values can stand only once.

Assays:
[1] = Plasma insulin levels after PX-866; type: in vivo, C57B1/6 mice; conditions: PX-866 single dose of 10 mg/kg po (FIG. 10)
Source text: PX-866 and glucose tolerance.

A-549 lung = assay: Antitumor activity of wortmannin analogs, A-549 lung tumor (Table 1); type: in vivo
[2] = system: tumor phospho-Akt (A-549 tumor xenografts); assay: Pharmacodynamic studies, tumor phospho-Akt in A-549 xenografts; type: in vivo, scid mice
Source text: Pharmacodynamic Studies. […] Tumor Akt activity was expressed as the ratio of phospho-Ser473-Akt to total Akt.

[3] = Toxicity studies, blood counts in C57B1/6 mice; type: in vivo; conditions: PX-866 3 mg/kg po every other day for 15 doses
Procedure: Toxicity Studies. […] The mice were killed 24 hr after the last dose and changes in body weight, blood lymphocyte, neutrophil, red blood cell, platelet counts, serum glucose, aspartate amino transferase (AST), and amino alanine transferase (ALT) were measured.

OvCaR-3 ovarian [4] = assay: Antitumor activity of cytotoxic drugs alone or combined with PX-866, OvCar-3 ovarian (Table 2); type: in vivo; conditions: for Alone Growth delay days / Alone TGI % / Alone log cell kill: size 110 mm^3
Panc-1 pancreatic = assay: Antitumor activity of cytotoxic drugs alone or combined with PX-866, Panc-1 pancreatic (Table 2); type: in vivo; conditions: for Alone Growth delay days / Alone TGI % / Alone log cell kill: size 75 mm^3
OvCaR-3 ovarian [5] = assay: Antitumor activity of wortmannin analogs, OvCaR-3 ovarian tumor (Table 1); type: in vivo; conditions: initial tumor vol 120 mm^3, 8 mg/kg/day ip Q1D × 9
[6] = system: A-549 human nsc lung cancer xenografts; assay: Antitumor studies, PX-866 and gefitinib in A-549 xenografts; type: in vivo, scid mice; conditions: for Tumor T/C %, PX-844 4 hrs before gefitinib / Tumor T/C %: 100 mm3 tumors; for Tumor T/C %: end of dosing period
Procedure: Antitumor Studies. […] When the tumors reached 100 or 600 mm3 the mice were stratified into groups of 8 animals having approximately equal mean tumor volumes and drug administration was started. […] Animals were weighed weekly and tumor diameters were measured twice weekly at right angles (d short and d long) with electronic calipers and tumor volumes calculated by the formula volume=(dshort)2×(dlong))2. When the tumor reached 2,000 mm3 or more, or became necrotic the animals were euthanized.
In vivo antitumor studies. […] Tumors were allowed to grow to a mean volume of […] before drug treatment was started every other day for 14 doses. Antitumor activity is expressed as the % volume of the treated tumor/control tumor (T/C %) at the end of the dosing period. There were 8 mice in each group and all differences are p<0.01.

mouse bone marrow = assay: Bone marrow colony formation from treated mice; type: in vivo; conditions: C57B1/6 mice, PX-866 3 mg/kg po every other day for 15 doses
Procedure: Bone Marrow Colony Formation. After sacrifice, mouse bone marrow was extracted from each femur and red blood cells lysed with 0.2% hypotonic NaCl followed by the addition of a 1.6% hypertonic NaCl. Approximately 20,000 cells were plated in 1 ml of Methocult™ GF M3434 (Stemcell Technologies Inc, Vancouver, BC, Canada) containing 1% methylcellulose in […], 15% fbs, 1% bovine serum albumin, 10:g/ml recombinant human insulin, 200:g/ml humantransferrin, […] β-mercaptoethanol, 2 mM L-glutamine, 50 ng/ml rm stem cell factor, 10 ng/ml recombinant mouse interleukin-3, 10 ng/ml recombinant human interleukin-6, and 3 units/ml recombinant erythropoietin. Cells were plated in triplicate and grown at 37/C and 5% CO2 in a humid environment for 14 days before scoring. Colonies (>40 cells/colony) or clusters (3-40 cells) were scored and growth of colony-forming unit granulocyte, erythroid, macrophage, megakaryocyte (CFU-GEMM; burst-forming units-erythroid (BFU-E), colony-forming units granulocyte macrophage (CFU-GM), assessed using standard criteria. Qualitative observations were made on background levels of single cells.

[7] = Pharmacokinetics of PX-866 in mouse plasma; type: in vivo; conditions: intravenous, intraperitoneal and oral administration; mouse plasma (FIG. 2)
[8] = initial tumor vol 60 mm^3, 4 mg/kg/day po Q1D × 9
[9] = initial tumor vol 60 mm^3, 12 mg/kg/day iv Q1D × 9
[10] = initial tumor vol 65 mm^3, 6 mg/kg/day ip Q1D × 9
[11] = initial tumor vol 65 mm^3, 9 mg/kg/day ip Q1D × 9
[12] = PX-866 iv 12 mg/kg Q2D × 5 combined with taxol ip 12 mg/kg Q2D × 5
[13] = PX-866 po 4 mg/kg Q2D × 5 combined with taxol ip 12 mg/kg Q2D × 5
[14] = PX-866 iv 15 mg/kg Q3D × 3 combined with gemcitabine ip 150 mg/kg Q3D × 3
[15] = PX-866 po 5 mg/kg Q3D × 3 combined with gemcitabine ip 150 mg/kg Q3D × 3

C=CCN(/C=C1/C(=O)O[C@H](COC)[C@@]2(C)C1=C(O)C(=O)C1=C2[C@H](OC(C)=O)C[C@]2(C)C(=O)CC[C@@H]12)CC=C [PX-866]
duration of increase in plasma insulin levels [1]: up to 5 hr
Growth Delay (A-549 lung; [8]): 6 days
Log10 cell kill (A-549 lung; [8]): 0.9
T/C % (optimal test/control) (A-549 lung; initial tumor vol 60 mm^3, 4 mg/kg/day po Q1D × 9, day 21): 47 (21) %
Growth Delay (A-549 lung; [9]): 5 days
Log10 cell kill (A-549 lung; [9]): 0.7
T/C % (optimal test/control) (A-549 lung; initial tumor vol 60 mm^3, 12 mg/kg/day iv Q1D × 9, day 21): 45 (21) %
Growth Delay (A-549 lung; [10]): 4 days
Log10 cell kill (A-549 lung; [10]): 0.2
T/C % (optimal test/control) (A-549 lung; initial tumor vol 65 mm^3, 6 mg/kg/day ip Q1D × 9, day 32): 62 (32) %
Growth Delay (A-549 lung; [11]): 8 days
Log10 cell kill (A-549 lung; [11]): 0.4
T/C % (optimal test/control) (A-549 lung; initial tumor vol 65 mm^3, 9 mg/kg/day ip Q1D × 9, day 32): 26 (32) %
inhibition at 12 mg/kg ([2]; Mus musculus, A549, iv, 120 h, read-out: inhibition of tumor phospho-Akt): 51%
inhibition at 3 mg/kg ([2]; Mus musculus, A549, po, 120 h, read-out: inhibition of tumor phospho-Akt): 48%
effect upon tumor phospho-Akt ([2]; combination of gefitinib and PX-866): inhibited both
change in any other blood elements [3]: no significant change
neutrophil counts ([3]; ±S.E., n=4): 3.7±1.8 K/:l
Combined Growth delay days (OvCaR-3 ovarian [4]; [12]): 20 days
Combined TGI % (OvCaR-3 ovarian [4]; [12]): 83%
Combined log cell kill (OvCaR-3 ovarian [4]; [12]): 1.5
Combined Growth delay days (OvCaR-3 ovarian [4]; [13]): 34 days
Combined TGI % (OvCaR-3 ovarian [4]; [13]): 87%
Combined log cell kill (OvCaR-3 ovarian [4]; [13]): 2.6
Alone Growth delay days (OvCaR-3 ovarian [4]; PX-866 iv 12 mg/kg Q2D × 5): 12 days
Alone TGI % (OvCaR-3 ovarian [4]; PX-866 iv 12 mg/kg Q2D × 5): 58%
Alone log cell kill (OvCaR-3 ovarian [4]; PX-866 iv 12 mg/kg Q2D × 5): 0.9
Alone Growth delay days (OvCaR-3 ovarian [4]; PX-866 po 4 mg/kg Q2D × 5): 11 days
Alone TGI % (OvCaR-3 ovarian [4]; PX-866 po 4 mg/kg Q2D × 5): 53%
Alone log cell kill (OvCaR-3 ovarian [4]; PX-866 po 4 mg/kg Q2D × 5): 0.82
Combined Growth delay days (Panc-1 pancreatic; [14]): 8 days
Combined TGI % (Panc-1 pancreatic; [14]): 49%
Combined log cell kill (Panc-1 pancreatic; [14]): 0.2
Combined Growth delay days (Panc-1 pancreatic; [15]): 19 days
Combined TGI % (Panc-1 pancreatic; [15]): 60%
Combined log cell kill (Panc-1 pancreatic; [15]): 0.5
Alone Growth delay days (Panc-1 pancreatic; PX-866 iv 15 mg/kg Q3D × 3): 4 days
Alone TGI % (Panc-1 pancreatic; PX-866 iv 15 mg/kg Q3D × 3): 16%
Alone log cell kill (Panc-1 pancreatic; PX-866 iv 15 mg/kg Q3D × 3): 0.1
Alone Growth delay days (Panc-1 pancreatic; PX-866 po 5 mg/kg Q3D × 3): 0 days
Alone TGI % (Panc-1 pancreatic; PX-866 po 5 mg/kg Q3D × 3): 14%
Alone log cell kill (Panc-1 pancreatic; PX-866 po 5 mg/kg Q3D × 3): 0
Growth Delay (OvCaR-3 ovarian [5]): 12 days
Log10 cell kill (OvCaR-3 ovarian [5]): 1.2
T/C % (optimal test/control) (OvCaR-3 ovarian [5]; day 40): 30 (40) %
Tumor T/C %, PX-844 4 hrs before gefitinib ([6]; PX-866 IV 4 mg/kg QOD × 14, 4 hr before gefitinib 75 mg/kg po): 20.5%
Tumor T/C % ([6]; PX-866 IV 4 mg/kg QOD × 14 alone): 65.3%
Tumor T/C %, PX-844 4 hrs before gefitinib ([6]; PX-866 IV 9 mg/kg QOD × 14, 4 hr before gefitinib 75 mg/kg po): 22% and 22.3%
Tumor T/C % ([6]; PX-866 IV 9 mg/kg QOD × 14 alone, 9 mg/kg): 31% and 31.5%
Tumor T/C %, PX-844 4 hrs before gefitinib ([6]; PX-866 PO 1 mg/kg QOD × 14, 4 hr before gefitinib 75 mg/kg po): 40.8%
Tumor T/C % ([6]; PX-866 PO 1 mg/kg QOD × 14 alone): 54.8%
Tumor T/C %, PX-844 4 hrs before gefitinib ([6]; PX-866 PO 2.5 mg/kg QOD × 14, 4 hr before gefitinib 75 mg/kg po): 18% and 18.1%
Tumor T/C % ([6]; PX-866 PO 2.5 mg/kg QOD × 14 alone, 2.5 mg/kg): 41% and 40.8%
combination antitumor activity, large tumors ([6]; PX-866 with gefitinib, 600 mm3 A-549 tumor xenografts (FIG. 7B)): Increased combination antitumor activity
tumor T/Cs ([6]; administered long term, single agent (discussion)): around 50%
activity of combination with gefitinib by timing ([6]; alternating day schedule, preliminary studies, data not shown): more active when administered 4 hr before rather than 24 hr after gefitinib
erythroid lineage CFU-GEMM, BFU-E or CFU-E (mouse bone marrow): no significant change
myeloid CFU-GM (mouse bone marrow; ±S.E., n=4): 168±59 colonies per 60,000 bone marrow cells plated
half-life [7]: ~16 h
